From US20240368139A1, “NOVEL MODULATORS OF EHMT1 AND EHMT2 AND THERAPEUTIC USE THEREOF” (Tango Therapeutics, Inc., priority 2021, published 2024) come the findings set out here.

The subject of test [1] is H3K9me2 in HCT116 cells. The test is described as follows: HCT116 H3K9me2 in-cell western assay. The test is classed as cell-based. The note with it: Homo sapiens, HCT-116, 72 h, HCT116 cells, 72 hours incubation; read-out: H3K9me2 ICW IC50. The method in brief: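 H3K9me2 signal (800 nm) was normalized to DRAQ5 DNA stain (700 nm) in an in-cell western. Cells were fixed with paraformaldehyde and probed overnight at 4° C with primary antibody.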

Test [2] addresses T1, human EHMT1 982-1266 (Homo sapiens, UniProt Q9H9B1).
T1 sequence (Q9H9B1 982-1266): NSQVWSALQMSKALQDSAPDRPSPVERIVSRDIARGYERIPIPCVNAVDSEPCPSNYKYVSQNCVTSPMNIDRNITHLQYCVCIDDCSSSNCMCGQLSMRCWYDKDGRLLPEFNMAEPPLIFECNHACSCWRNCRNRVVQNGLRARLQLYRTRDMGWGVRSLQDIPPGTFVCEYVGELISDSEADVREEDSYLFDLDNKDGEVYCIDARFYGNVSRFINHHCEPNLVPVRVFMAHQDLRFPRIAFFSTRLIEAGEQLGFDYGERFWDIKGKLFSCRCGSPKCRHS
The test is described as follows: EHMT1 enzyme assay on histone peptide substrate (3H-SAM SPA). Particulars: EHMT1 IC50, recombinant human EHMT1 982-1266, histone peptide substrate.

The target of test [3] is T2, human EHMT2 913-1193 (Homo sapiens, UniProt Q96KQ7).
T2 sequence (Q96KQ7 913-1193): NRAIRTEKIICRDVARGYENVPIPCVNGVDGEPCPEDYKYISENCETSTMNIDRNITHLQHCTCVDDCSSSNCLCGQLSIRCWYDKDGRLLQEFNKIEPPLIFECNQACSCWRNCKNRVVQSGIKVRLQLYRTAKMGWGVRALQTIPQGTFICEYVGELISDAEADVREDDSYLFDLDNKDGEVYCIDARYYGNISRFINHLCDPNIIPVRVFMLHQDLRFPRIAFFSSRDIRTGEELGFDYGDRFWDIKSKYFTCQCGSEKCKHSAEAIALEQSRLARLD
The test is described as follows: EHMT2 enzyme assay on histone peptide substrate (3H-SAM SPA). The note with it: EHMT2 IC50, recombinant human EHMT2 913-1193, histone peptide substrate.

pIC50: −log10 of the molar value.

As usually defined, the pIC50 is the negative decadic logarithm of the IC50, by convention in mol/L. Take `CNc1nc(Nc2cc3c(c(C4=CCNCCC4)c2)OCC3)nc(C)c1F` [Compound 277]: the pIC50 in test [1], in test [2] and in test [3] was 6.30 to 7.00 each time.
Turning to `CNc1cc(C)nc(Nc2cc3c(c(C4=CCN(C)CCC4)c2)OCC3)c1` [Compound 278], the figures for the pIC50 in test [1], in test [2] and in test [3] were 6.30 to 7.00, over 7.00 and 6.30 to 7.00, respectively.
`CNc1nc(Nc2cc3c(c(C4=CCNCCC4)c2)OCO3)nc(C)c1F` [Compound 279]: the pIC50 in test [1] is 6.30 to 7.00; in test [2] it was 6.30 to 7.00; in test [3] it was 5.70 to 6.30.
In the case of `CNc1cc(C)nc(Nc2cc3c(c(C4=CCN(C)CCC4)c2F)OCC3)n1` [Compound 280, N2-[6-fluoro-7-(1-methyl-2,3,4,7-tetrahydroazepin-5-yl)-2,3-dihydrobenzofuran-5-yl]-N4,6-dimethyl-pyrimidine-2,4-diamine], the pIC50 in test [1], in test [2] and in test [3] was over 7.00 throughout.
As to `[2H]C([2H])([2H])Nc1cc(C)nc(Nc2cc3c(c(C4=CCNCCC4)c2)OCO3)n1` [Compound 281], the pIC50 in test [1], in test [2] and in test [3] was over 7.00 in each case.
As to `[2H]C([2H])([2H])Nc1cc(C)nc(Nc2cc3c(c(C4=CCN(C)CCC4)c2)OCCO3)n1` [Compound 282], the pIC50 in test [1] was 6.30 to 7.00; in test [2], over 7.00; in test [3], 5.70 to 6.30.
The matching figures for `[2H]C([2H])([2H])Nc1cc(C)nc(Nc2cc3c(c(C4=CCNCCC4)c2)OCCO3)n1` [Compound 283]: over 7.00, over 7.00 and over 7.00.
Regarding `CNc1nc(Nc2cc3c(c(C4=CCNCCC4)c2)OCC3)nc(C)c1Cl` [Compound 284], the values for the pIC50 in test [1], in test [2] and in test [3] were 6.30 to 7.00, 6.30 to 7.00 and 5.70 to 6.30, respectively.
Consider `[2H]C([2H])([2H])CNc1cc(C)nc(Nc2cc3c(c(C4=CCNCCC4)c2)OCCO3)n1` [Compound 285], for which the pIC50 in test [1], in test [2] and in test [3] was 6.30 to 7.00 each time.
Turning to `CNc1nc(Nc2cc3c(c(C4=CCN(C)CCC4)c2)OCC3)nc(C)c1C` [Compound 286], the results for the pIC50 in test [1], in test [2] and in test [3] were 6.30 to 7.00, over 7.00 and 6.30 to 7.00, respectively.
For the compound `CNc1nc(Nc2cc3c(c(C4=CCNCCC4)c2)OCC3)nc(C)c1C` [Compound 287], the negative-log IC50 (pIC50) in test [1], in test [2] and in test [3] was over 7.00 in each case.
Turning to `CNc1cc(C)nc(Nc2cc3c(c(C4=CCNCCC4)c2)OCC3)c1` [Compound 288], the pIC50 was 6.30 to 7.00 in test [1], over 7.00 in test [2] and over 7.00 in test [3].
For the compound `Cc1cc(NCC2CCCO2)nc(Nc2cc3c(c(C4=CCN(C)CCC4)c2)OCC3)n1` (stereo not drawn) [Compound 292], the pIC50 in test [1], in test [2] and in test [3] was 6.30 to 7.00 throughout.
As for `COCCCNc1cc(C)nc(Nc2cc3c(c(C4=CCNCCC4)c2)OCC3)c1` [Compound 293], the negative logarithm of the IC50 (pIC50) was 5.70 to 6.30 in test [1], 6.30 to 7.00 in test [2] and 6.30 to 7.00 in test [3].
On to `Cc1cc(NCC2CCCO2)nc(Nc2cc3c(c(C4=CCNCCC4)c2)OCC3)n1` (stereo not drawn) [Compound 294], for which the figures for the pIC50 in test [1], in test [2] and in test [3] were 6.30 to 7.00, over 7.00 and 6.30 to 7.00, respectively.
Consider `COCCCNc1cc(C)nc(Nc2cc3c(c(C4=CCN(C)CCC4)c2)OCC3)c1` [Compound 295], for which the negative logarithm of the IC50 (pIC50) in test [1] is 5.70 to 6.30; in test [2], 6.30 to 7.00; in test [3] it was 5.70 to 6.30.
Consider `[2H]C([2H])([2H])CNc1cc(C)nc(Nc2cc3c(c(C4=CCN(C)CCC4)c2)OCC3)n1` [Compound 296], for which the negative logarithm of the IC50 (pIC50) in test [1] was 6.30 to 7.00; in test [2], over 7.00; in test [3] it was 6.30 to 7.00.
In the case of `COCCNc1cc(C)nc(Nc2cc3c(c(C4=CCN(C)CCC4)c2)OCC3)c1` [Compound 297], the values for the pIC50 in test [1], in test [2] and in test [3] were 5.70 to 6.30, 6.30 to 7.00 and 5.70 to 6.30, respectively.
On to `COCCCNc1cc(C)nc(Nc2cc3c(c(C4=CCN(C)CCC4)c2)OCC3)n1` [Compound 298], for which the values for the pIC50 in test [1], in test [2] and in test [3] were 6.30 to 7.00, over 7.00 and 6.30 to 7.00, respectively.
`Cc1cc(NCC2CCOCC2)nc(Nc2cc3c(c(C4=CCN(C)CCC4)c2)OCC3)n1` [Compound 299]: the pIC50 in test [1] was 6.30 to 7.00; in test [2], over 7.00; in test [3], 6.30 to 7.00.
`[2H]C([2H])([2H])CNc1cc(C)nc(Nc2cc3c(c(C4=CCNCCC4)c2)OCC3)n1` [Compound 300]: the pIC50 in test [1] is 6.30 to 7.00; in test [2], over 7.00; in test [3] it was over 7.00.
For `[2H]C([2H])([2H])Nc1cc(C)nc(Nc2cc3c(c(C4=CCN(C)CCC4)c2)OCC3)n1` [Compound 301], the figures for the pIC50 in test [1], in test [2] and in test [3] were 6.30 to 7.00, over 7.00 and over 7.00, respectively.
Take `[2H]Cc1cc(NC)nc(Nc2cc3c(c(C4=CCNCCC4)c2)OCC3)n1` [Compound 302]: the pIC50 in test [1], in test [2] and in test [3] was over 7.00 each time.
Consider `[2H]Cc1cc(NC)nc(Nc2cc3c(c(C4=CCN(C)CCC4)c2)OCC3)n1` [Compound 303], for which the pIC50 in test [1], in test [2] and in test [3] was over 7.00 each time.
As to `CNc1cc(Nc2cc3c(c(C4=CCNCCC4)c2)OCC3)nc(C)c1F` [Compound 304], the pIC50 in test [1] is 6.30 to 7.00; in test [2], over 7.00; in test [3] it was over 7.00.
For the compound `COCCNc1cc(C)nc(Nc2cc3c(c(C4=CCNCCC4)c2)OCC3)c1` [Compound 305], the results for the negative-log IC50 (pIC50) in test [1], in test [2] and in test [3] were 5.70 to 6.30, 6.30 to 7.00 and 6.30 to 7.00, respectively.
For `[2H]C([2H])([2H])Nc1cc(C)nc(Nc2cc3c(c(C4=CCNCCC4)c2)OCC3)n1` [Compound 306], the pIC50 in test [1], in test [2] and in test [3] was over 7.00 in each case.
For `CNc1cc(C)nc(Nc2cc3c(c(C4=CCCNCC4C)c2)OCC3)n1` (stereo not drawn) [Compound 307], the negative-log IC50 (pIC50) was 5.70 to 6.30 in test [1], 6.30 to 7.00 in test [2] and 5.70 to 6.30 in test [3].
`Cc1cc(NCC2CCOCC2)nc(Nc2cc3c(c(C4=CCNCCC4)c2)OCC3)n1` [Compound 308]: the pIC50 is 6.30 to 7.00 in test [1], over 7.00 in test [2] and over 7.00 in test [3].
Turning to `Cc1cc(NCC(F)(F)F)cc(Nc2cc3c(c(C4=CCNCCC4)c2)OCC3)n1` [Compound 309], the pIC50 in test [1] is 5.70 to 6.30; in test [2] it was 6.30 to 7.00; in test [3], 5.70 to 6.30.
Consider `COCCCNc1cc(C)nc(Nc2cc3c(c(C4=CCNCCC4)c2)OCC3)n1` [Compound 310], for which the pIC50 in test [1] is 6.30 to 7.00; in test [2], over 7.00; in test [3] it was over 7.00.
`CNc1cc(C)nc(Nc2cc3c(c(C4=CCNCCC4)c2)COC3)n1` [Compound 311]: the values for the pIC50 in test [1], in test [2] and in test [3] were 6.30 to 7.00, 6.30 to 7.00 and 5.70 to 6.30, respectively.
`Cc1cc(NC2COC2)cc(Nc2cc3c(c(C4=CCN(C)CCC4)c2)OCC3)n1` [Compound 312]: the values for the negative logarithm of the IC50 (pIC50) in test [1], in test [2] and in test [3] were 5.70 to 6.30, 6.30 to 7.00 and 5.70 to 6.30, respectively.
For `Cc1cc(NC2COC2)cc(Nc2cc3c(c(C4=CCNCCC4)c2)OCC3)n1` [Compound 313], the figures for the pIC50 in test [1], in test [2] and in test [3] were 5.70 to 6.30, 6.30 to 7.00 and 6.30 to 7.00, respectively.
On to `CNc1cc(C2CC2)nc(Nc2cc3c(c(C4=CCN(C)CCC4)c2)OCC3)n1` [Compound 314], for which the pIC50 in test [1] was 6.30 to 7.00; in test [2], 6.30 to 7.00; in test [3], 5.70 to 6.30.
Turning to `CCNc1cc(C)nc(Nc2cc3c(c(C4=CCNCCC4)c2)OCC3)n1` [Compound 315], the pIC50 in test [1], in test [2] and in test [3] was 6.30 to 7.00 each time.
On to `CCc1cc(NC)nc(Nc2cc3c(c(C4=CCN(C)CCC4)c2)OCC3)n1` [Compound 316], for which the pIC50 was 6.30 to 7.00 in test [1], over 7.00 in test [2] and 6.30 to 7.00 in test [3].
`CNc1cc(C2CC2)nc(Nc2cc3c(c(C4=CCNCCC4)c2)OCC3)n1` [Compound 317]: the pIC50 was over 7.00 in test [1], over 7.00 in test [2] and 6.30 to 7.00 in test [3].
On to `Cc1cc(NC2CCC2)nc(Nc2cc3c(c(C4=CCN(C)CCC4)c2)OCC3)n1` [Compound 318], for which the pIC50 in test [1] was 6.30 to 7.00; in test [2], 6.30 to 7.00; in test [3] it was 5.70 to 6.30.
For the compound `CCc1cc(NC)nc(Nc2cc3c(c(C4=CCNCCC4)c2)OCC3)n1` [Compound 319], the pIC50 in test [1], in test [2] and in test [3] was over 7.00 throughout.
